Data: patent US9518038B2, “Condensation product of theanine derivative and carboxylic acid coumarin derivative, its intermediate, preparation method and use thereof” (SHANDONG YINGDONG YINGHAO BIOTECHNOLOGY, INC., priority 2012, dated 2016)
Like-named read-outs stand apart in the source and are kept apart here.

How the values were obtained:
[1] = test system: human lung cancer cells A549; test: MTT growth inhibition, A549 cells; type: cell-based; settings: 72 h after treatment, read-out: Drug concentration (IC50) at which 50% cancer cells survived
Source text: (§1) Cell lines and cell culture: human lung cancer cells A549 and H460, human breast cancer cells MCF-7 and MDA-MB-231, human gastric cancer cells BGC-823, human prostate cancer cells PC-3, human chronic leukemia cells K562, human lymphoma cells U937, human liver cancer cells SMMC7721 and HepG2, human colon cancer cells HT29, human pancreatic cancer cells PANC-1 and BxPC3, human cervical cancer Hela cell lines, human brain tumor cells Daoy, human neuroma cells D54 and human oral epidermoid cancer cells KBV200 line with strong drug resistance, mouse melanoma cells B16, and highly metastatic Lewis lung cancer cell lines were purchased from American Type Culture Collection of the U.S. These cells were cultured with DMEM and RPMI-1640 culture solutions separately.
(§2) The procedure was as follows:
(§3) (1) 0.25% trypsin was used to digest cancer cells in a logarithmic growth phase to prepare a single-cell suspension, the concentration of cells was adjusted to 5×10^4/mL, and the adjusted suspension was inoculated into a 96-well culture plate with 100 μl per well;
(§4) (2) The culture plate was transferred into a 37° C. incubator with a saturated humidity and 5% of CO2 and cultured for 24 h; the compounds and the intermediates thereof obtained in embodiments 1-7 and the compound as represented by formula (IIIa) or the positive control anti-cancer drug with the concentration of 1-1000 μM/L were added to enable the final concentration to be 0.1-1500 μM/L. Control wells (only added with 200 μl of cell suspension) and drug-free blank control wells (containing the solvent of 0.01% DMSO) were set, each group included 8 wells, and the plate was placed into the 37° C. incubator with saturated humidity and 5% of CO2 for culturing;
(§5) (3) The 96-well plate was taken out at 48 h and 72 h after dosing, the original culture medium was carefully removed by suction, 100 μl of serum-free DMEM culture medium and 10 μl of MTT (5 mg/mL) solution were added in each well. The plate was continuously cultured for another 4 h and then the culture was terminated;
(§6) (4) The supernatant in the wells was carefully removed by suction, each well was added with 150 μl of DMSO and shaked at room temperature for 10-15 min to fully dissolve crystals.
(§7) (5) Colorimetric analysis: the wavelength was selected as 570 nm, the light absorbance (A value) of each well was determined on the microplate reader and the results were recorded; the experiment was repeated for three times;
(§8) (6) the experimental results were calculated according to the following formula: relative survival rate=(A value of each experimental group/A value of cell control group)×100%
(§9) Calculation of median-effect concentration (IC50, namely the drug concentration at which the inhibition rate is 50%, also known as half inhibitory concentration):
(§10) IC50 of the detected component was calculated by using a regression equation.

[2] = test system: human lung cancer cells H460; test: MTT growth inhibition, H460 cells; type: cell-based; settings: NCI-H460, 72 h after treatment, read-out: Drug concentration (IC50) at which 50% cancer cells survived
Source text: as §1, §2, §3, §4, §5, §6, §7, §8, §9, §10

[3] = test system: human breast cancer cells MCF-7; test: MTT growth inhibition, MCF-7 cells; type: cell-based; settings: MCF7, 72 h after treatment, read-out: Drug concentration (IC50) at which 50% cancer cells survived
Source text: as §1, §2, §3, §4, §5, §6, §7, §8, §9, §10

[4] = test system: human breast cancer cells MDA-MB-231; test: MTT growth inhibition, MDA-MB-231 cells; type: cell-based; settings: 72 h after treatment, read-out: Drug concentration (IC50) at which 50% cancer cells survived
Source text: as §1, §2, §3, §4, §5, §6, §7, §8, §9, §10

[5] = test system: human gastric cancer cells BGC-823; test: MTT growth inhibition, BGC-823 cells; type: cell-based; settings: 72 h after treatment, read-out: Drug concentration (IC50) at which 50% cancer cells survived
Source text: as §1, §2, §3, §4, §5, §6, §7, §8, §9, §10

[6] = test system: human prostate cancer cells PC-3; test: MTT growth inhibition, PC-3 cells; type: cell-based; settings: 72 h after treatment, read-out: Drug concentration (IC50) at which 50% cancer cells survived
Source text: as §1, §2, §3, §4, §5, §6, §7, §8, §9, §10

[7] = test system: human lymphoma cells U937; test: MTT growth inhibition, U937 cells; type: cell-based; settings: Homo sapiens, U-937, 72 h after treatment, read-out: Drug concentration (IC50) at which 50% cancer cells survived
Protocol: as §2, §5, §6, §7, §8, §10

[8] = test system: human pancreatic cancer cells PANC-1; test: MTT growth inhibition, PANC-1 cells; type: cell-based; settings: 72 h after treatment, read-out: Drug concentration (IC50) at which 50% cancer cells survived
Source text: as §1, §2, §3, §4, §5, §6, §7, §8, §9, §10

[9] = test system: human cervical cancer Hela cell lines; test: MTT growth inhibition, Hela cells; type: cell-based; settings: Homo sapiens, 72 h after treatment, read-out: Drug concentration (IC50) at which 50% cancer cells survived
Source text: as §1, §2, §3, §4, §5, §6, §7, §8, §9, §10

[10] = test system: human liver cancer cells SMMC7721; test: MTT growth inhibition, SMMC7721 cells; type: cell-based; settings: SMMC-7721, S-7721 (SMMC7721), 72 h after treatment, read-out: Drug concentration (IC50) at which 50% cancer cells survived
Source text: as §1, §2, §3, §4, §5, §6, §7, §8, §9, §10

[11] = test system: human colon cancer cells HT29; test: MTT growth inhibition, HT29 cells; type: cell-based; settings: HT-29, 72 h after treatment, read-out: Drug concentration (IC50) at which 50% cancer cells survived
Source text: as §1, §2, §3, §4, §5, §6, §7, §8, §9, §10

mouse melanoma cells B16 = test: MTT growth inhibition, B16 cells; type: cell-based; settings: Mus musculus, 72 h after treatment, read-out: Drug concentration (IC50) at which 50% cancer cells survived
Source text: as §1, §2, §3, §4, §5, §6, §7, §8, §9, §10

[12] = test system: human chronic leukemia cells K562; test: MTT growth inhibition, K562 cells; type: cell-based; settings: 72 h after treatment, read-out: Drug concentration (IC50) at which 50% cancer cells survived
Source text: as §1, §2, §3, §4, §5, §6, §7, §8, §9, §10

[13] = test system: highly metastatic Lewis lung cancer cell lines; test: MTT growth inhibition, LLC cells; type: cell-based, mouse; settings: Mus musculus, Lewis lung carcinoma, 72 h after treatment, read-out: Drug concentration (IC50) at which 50% cancer cells survived
Source text: as §1, §2, §3, §4, §5, §6, §7, §8, §9, §10

[14] = test system: human pancreatic cancer cells BxPC3; test: MTT growth inhibition, BxPc3 cells; type: cell-based; settings: Homo sapiens, BXPC-3, 72 h after treatment, read-out: Drug concentration (IC50) at which 50% cancer cells survived
Source text: as §1, §2, §3, §4, §5, §6, §7, §8, §9, §10

[15] = test system: human liver cancer cells HepG2; test: MTT growth inhibition, HepG2 cells; type: cell-based; settings: 72 h after treatment, read-out: Drug concentration (IC50) at which 50% cancer cells survived
Source text: as §1, §2, §3, §4, §5, §6, §7, §8, §9, §10

[16] = test system: Caski human cervical cancer cells; test: MTT growth inhibition, Caski cells; type: cell-based; settings: Ca-Ski, 72 h after treatment, read-out: Drug concentration (IC50) at which 50% cancer cells survived
[17] = test system: human brain tumor cells Daoy; test: MTT growth inhibition, Daoy cells; type: cell-based; settings: Homo sapiens, 72 h after treatment, read-out: Drug concentration (IC50) at which 50% cancer cells survived
Source text: as §1, §2, §3, §4, §5, §6, §7, §8, §9, §10

human neuroma cells D54 = test: MTT growth inhibition, D54 cells; type: cell-based; settings: Homo sapiens, 72 h after treatment, read-out: Drug concentration (IC50) at which 50% cancer cells survived
Source text: as §1, §2, §3, §4, §5, §6, §7, §8, §9, §10

[18] = test system: human oral epidermoid cancer cells KBV200; test: MTT growth inhibition, KBV200 cells; type: cell-based; settings: 72 h after treatment, read-out: Drug concentration (IC50) at which 50% cancer cells survived
Source text: as §1, §2, §3, §4, §5, §6, §7, §8, §9, §10

[19] = test system: nucleoprotein factor NF-κB (p65)-DNA binding activity; test: NF-κB (p65)-DNA binding activity (EMSA); type: cell-based; settings: EMSA, nuclear protein extracts, 48 h, read-out: Effective concentration for 50% inhibition of binding of nucleoprotein factor NF-kB (p65) and DNA
Source text: The in-vitro experiment of the inhibitory effect against the NF-κB(p65)-DNA binding activity was applied with the chemiluminescent EMSA kit of Pierce Biotechnology Company of the U.S., the experimental method was strictly operated according to the description of the kit and the specific procedure were as follows:
(1) Preparation of EMSA gel
The cells treated by the drugs were extracted by the nucleoprotein extract solution (provided by Beyotime Biotechnology of Institute) to obtain the nucleoprotein extracts, and 10 μg/pipe of the nucleoprotein extracts were respectively used for sample reaction and electrophoresis detection and analysis shown in the following table.
(2) Pre-electrophoresis: the gel was fixed in an electrophoresis tank, which was filled with a 0.5×TBE electrophoresis buffer solution, and electrophoresed under 10V/cm for 90 min. The probe binding reaction was as follows:
The components were added in sequence into the EP pipe according to the above table, uniformly mixed and stood at room temperature for 15 min to eliminate possible non-specific binding of probe and protein. 1 μl of biotin-labeled probe NF-κB was respectively added and stood at room temperature for 20 min.
(4) Film transfer: the process of transferring the nucleoprotein factors and the binding probe on the EMSA gel to the nylon film was electrically transferred under 380 mA in ice bath for 40 min.
(5) Ultraviolet cross-linking: the nylon film was placed under a 254 nm ultraviolet lamp and irradiated for 15 min.
(6) Detection of the biotin-labeled probe by chemiluminescence: the cross-linked nylon film was blocked with the blocking solution, a treated film was subjected to X-ray exposure, developing, and fixation according to the requirements of the kit, and the results were analyzed.

p53 = test: Western Blotting, increase of p53 level; type: cell-based; settings: liver cancer cells, Lewis lung cancer cells and other cancer cell lines and tumor tissue protein lysates, 48 h treatment, read-out: Effective concentration to increase p53 by 50%
Source text: (§11) Antibodies: primary antibodies of VEGFR, EGFR, c-Met, K-Ras, H-Ras, Akt, NF-κB, Cyclin D1, ER-alpha, Dvl-1, Dvl-2, Dvl-3, MMP-9, MMP2, β-catenin, Bcl-2, Bax, p53, p21, E-cadherin and Caspase3 protein, purchased from American Cell Signaling Technology Company and Santa Cruz Technology Company; and H3 acetylation, H4 acetylation and HDAC (HDAC3, HDAC4 and the like) Antibody Sample Kits, purchased from Cell Signaling Technology Company of the U.S.
(§12) (3) polyacrylamide gel electrophoresis (SDS-PAGE): an equal amount of protein lysate sample was used to separate protein, film transfer, and blocking, treated with appropriate primary antibodies and secondary antibodies in sequence, and the film was washed, then the color was developed with ECL kit, and a blot protein band was detected by exposure of an X-ray film; and a Gel-Pro Analyzer was used for quantitative analysis of gray degree, optical density value of the control group and the drug treatment group in various concentration were respectively compared with that of internal reference, the obtained ratios were respectively compared with the control group, and the protein expression level was semi-quantified.

p21 = test: Western Blotting, increase of p21 level; type: cell-based; settings: liver cancer cells, Lewis lung cancer cells and other cancer cell lines and tumor tissue protein lysates, 48 h treatment, read-out: Effective concentration to increase p21 by 50%
Source text: as §11, §12

E-cadherin = test: Western Blotting, increase of E-cadherin level; type: cell-based; settings: liver cancer cells, Lewis lung cancer cells and other cancer cell lines and tumor tissue protein lysates, 48 h treatment, read-out: Effective concentration to increase E-cadherin by 50%
Source text: as §11, §12

Caspase3 = test: Western Blotting, increase of Caspase3 level; type: cell-based; settings: liver cancer cells, Lewis lung cancer cells and other cancer cell lines and tumor tissue protein lysates, 48 h treatment, read-out: Effective concentration to increase Caspase-3 by 50%
Source text: as §11, §12

O=C(O)c1cc2cc(Br)cc(Br)c2oc1=O [Compound IIIh, 6,8-dibromo-coumarin-3-carboxylic acid]
IC50 [1]: 450 µM | IC50 [2]: 550 µM | IC50 [3]: 450 µM | IC50 [4]: 420 µM | IC50 [5]: 480 µM | IC50 [6]: 410 µM | IC50 [7]: 390 µM | IC50 [8]: 480 µM | IC50 [9]: 290 µM | IC50 [10]: 530 µM | IC50 [11]: 590 µM | IC50 (mouse melanoma cells B16): 460 µM | IC50 [12]: 480 µM | IC50 [13]: 350 µM | IC50 [14]: 400 µM | IC50 [15]: 145 µM | IC50 [16]: 135 µM | IC50 [17]: 350 µM | IC50 (human neuroma cells D54): 300 µM | IC50 [18]: 300 µM

CC[C@]1(O)C[C@H]2CN(CCc3c([nH]c4ccccc34)[C@@](C(=O)OC)(c3cc4c(cc3OC)N(C=O)[C@H]3[C@@](O)(C(=O)OC)[C@H](OC(C)=O)[C@]5(CC)C=CCN6CC[C@]43[C@@H]65)C2)C1 [Vincristine, reference compound]
IC50 [1]: 220 µM | IC50 [4]: 130 µM | IC50 [10]: 78 ± 30 µM | IC50 [15]: 37 µM | IC50 ([19]; A549 cells): > 70 µM | IC50 ([19]; Hela cells): > 70 µM | IC50 ([19]; MCF7 cells): > 70 µM | IC50 ([19]; MDA-MB231 cells): > 70 µM | IC50 ([19]; PANC-1 cells): > 70 µM | IC50 ([19]; SMMC7721 cells): > 70 µM | EC50 (p53): > 70 µM | EC50 (p21): > 70 µM | EC50 (E-cadherin): > 70 µM | EC50 (Caspase3): > 70 µM
